Data on eight molecules can be found in publication PMC10649063, “Optimization of a Novel Tyrosinase Inhibitory Peptide from Atrina pectinata Mantle and Its Molecular Inhibitory Mechanism” (Foods, 2023).

Entries after “also recorded” stand apart in the source; their conditions may differ. Where two headings read alike, the source gives them in different places. Peptide text beside a SMILES is read from it.

For orientation: IC50 means the point on the concentration scale where inhibition reaches its midpoint. Broadly, the Ki is a measure of affinity in units of concentration, obtained from inhibition or displacement. Higher therefore signals a looser hold on the target.

For one experiment, the target named is T1, Mushroom tyrosinase (Agaricus bisporus, UniProt C7FF04).
T1 construct: purchased Beijing Solarbio Biotechnology Co., Ltd
In words: Tyrosinase inhibitory activity (L-tyrosine substrate, absorbance at 475 nm). In kind it is biochemical. The method, then:
Tyrosinase inhibitory activity was determined in conformity with. With reference to the reagent addition in Table 1, we added phosphate buffer solution (PBS, pH 6.8, 0.1 mol/L), sample solutions and L-tyrosine solution (L-Tyr, 0.5 mg/mL, pH 6.8 in PBS) to each well in a 96-well plate. These were mixed well and incubated at 37 °C for 10 min. Then, 20 μL of mushroom tyrosinase solution (500 U/mL) was added, mixed and reacted at 37 °C for 15 min, and monitored at 475 nm. The tyrosinase inhibition rate (Y) was calculated as follows:(1) Y=(1−A4−A3/A2−A1)×100% where A4 is the absorbance of the reaction well of the sample, A3 is the absorbance value of the sample background well, A2 is the absorption value of the solvent reaction well and A1 is the absorbance of the solvent background well.

A further experiment has as its target T2, tyrosinase (Agaricus bisporus, UniProt C7FF04).
T2 construct: purchased Beijing Solarbio Biotechnology Co., Ltd
Nature of the experiment: Enzyme inhibition kinetic assay (enzyme concentration vs. rate, Lineweaver–Burk plots). Conditions: for Ki: Inhibition Constant KI (mM), enzyme–inhibitor complex; for Inhibition Constant KIS: enzyme–inhibitor–substrate complex. The format is biochemical, mushroom. An excerpt: The Lineweaver–Burk double-inverse curve was obtained by taking the reciprocal of the substrate concentration (1/[S]) as the horizontal coordinate and the reciprocal of the initial reaction rate (1/V) as the vertical coordinate to determine the type of inhibition and to calculate the Mie constant (KM) and the maximum reaction rate (Vmax).
To elucidate the mechanism of inhibition of tyrosinase by YYP, kinetic studies were used to investigate the kinetic characterization of the inhibitory response (Figure 6).
The Lineweaver–Burk double-inverse plot of the inhibitory effect of YYP on tyrosinase is illustrated in Figure 6. The 1/V were both fitted linearly to the 1/[S] (R^2 and p-values shown in Table 10) and intersected in the second quadrant of the graph. As the amount of YYP increased, the value of KM increased and the value of Vmax decreased.
The mixed-inhibitory type inhibits tyrosinase via two distinct pathways: competitively forming enzyme–inhibitor (EI) complexes and interrupting enzyme–substrate–inhibitor (ESI) complexes in a noncompetitive manner. The inhibition constant KI or KIS is the dissociation constant for the dissociation of the inhibitor (I) from the EI complexs or the enzyme–inhibitor–substrate (EIS) complexs. Both baicalein and cinnamic acid derivatives are reversible mixed-type inhibitors. […] Summarized in Table 10, based on the slope ratio and intercept ratio of the Lineweaver–Burk curve (with and without the presence of samples), the KI and KIS can be obtained.

Experiment [1] deals with Mushroom tyrosinase (Agaricus bisporus) (UniProt C7FF04).
For experiment [2] the target is unchanged. Nature of the experiment: enzyme inhibition kinetics (Lineweaver-Burk); tyrosinase with L-tyrosine as substrate; KI and KIS from the slope ratio and intercept ratio of the Lineweaver-Burk lines with and without YYP; YYP 1 mM.
Experiment [3] shares this target. In words: enzyme inhibition kinetics (Lineweaver-Burk); tyrosinase with L-tyrosine as substrate; KI and KIS from the slope ratio and intercept ratio of the Lineweaver-Burk lines with and without YYP; YYP 2 mM.
Experiment [4] has the same target. Nature of the experiment: enzyme inhibition kinetics (Lineweaver-Burk); tyrosinase with L-tyrosine as substrate; KI and KIS from the slope ratio and intercept ratio of the Lineweaver-Burk lines with and without YYP; YYP 0.5 mM.
The mark [5] stands for this setting: synthetic peptides, read-out: Tyrosinase Inhibitory Activity (IC50).

T1 sequence (C7FF04 1-392 limits assumed): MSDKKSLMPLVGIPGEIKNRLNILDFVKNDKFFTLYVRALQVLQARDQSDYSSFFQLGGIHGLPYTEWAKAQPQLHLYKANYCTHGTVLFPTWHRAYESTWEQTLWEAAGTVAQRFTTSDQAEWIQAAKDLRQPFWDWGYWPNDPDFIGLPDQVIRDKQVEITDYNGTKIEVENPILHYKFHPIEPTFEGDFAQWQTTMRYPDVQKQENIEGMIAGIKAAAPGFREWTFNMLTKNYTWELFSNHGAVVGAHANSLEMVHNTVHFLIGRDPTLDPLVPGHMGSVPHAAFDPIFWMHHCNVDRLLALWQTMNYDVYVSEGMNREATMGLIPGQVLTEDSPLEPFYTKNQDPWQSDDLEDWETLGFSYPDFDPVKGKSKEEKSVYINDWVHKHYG

`CC(C)C[C@H](NC(=O)[C@H](Cc1ccc(O)cc1)NC(=O)[C@@H]1CCCN1)C(=O)N[C@@H](CCCCN)C(=O)O` [PYLK, Pro-Tyr-Leu-Lys] (H-PYLK-OH; N-terminus and C-terminus assumed): the IC50 on Mushroom tyrosinase (setting [5]) was over 10 mM.

In the case of `N[C@@H](Cc1ccc(O)cc1)C(=O)N[C@@H](Cc1ccc(O)cc1)C(=O)N1CCC[C@H]1C(=O)O` [YYP, Tyr-Tyr-Pro] (H-Tyr-Tyr-Pro-OH; N-terminus and C-terminus assumed), the IC50 against Mushroom tyrosinase was determined as 1.76 ± 0.025 mM. In addition, at tyrosinase (YYP 0.5 mM), the Ki was found to be 0.245 mM, the “Maximum Reaction Speed Vmax (A475/min)” value worked out at 0.0212 A475/min and the “Inhibition Constant KIS” value came out at 8.3833 mM. In addition, on tyrosinase (YYP 1 mM), the Ki was 0.283 mM, the “Maximum Reaction Speed Vmax (A475/min)” value is recorded as 0.0206 A475/min and the “Inhibition Constant KIS” value turned out to be 11.4139 mM. At tyrosinase (YYP 2 mM), the affinity corresponds to a Ki of 0.428 mM, the “Maximum Reaction Speed Vmax (A475/min)” value is listed as 0.0192 A475/min and the “Inhibition Constant KIS” value is listed as 12.1276 mM. Moreover, the “Type of tyrosinase inhibition” value at tyrosinase (Lineweaver–Burk analysis) was “mixture of noncompetitive and competitive types; also recorded: mixed type of inhibition; also recorded: hybrid”. Also, the “Reversibility of tyrosinase inhibition” value at tyrosinase (enzyme concentration vs. initial rate at different YYP concentrations) was “reversible”.

In turn, Tyr-Tyr-Pro (YYP) (peptide) yielded a Tyrosinase Inhibitory Activity (IC50, mM); oxidation of L-tyrosine by mushroom tyrosinase read at 475 nm in experiment [1] of 1.76 mM. The KIS (inhibitor from the enzyme-inhibitor-substrate complex) in experiment [2] stood at 11.4 mM; in experiment [3] it was 12.1 mM; in experiment [4], 8.38 mM.

Take `O=C(O)[C@H](Cc1ccccc1)NC(=O)[C@H](Cc1c[nH]cn1)NC(=O)[C@H](Cc1c[nH]cn1)NC(=O)[C@@H]1CCCN1` [PHHF, Pro-His-His-Phe] (H-PHHF-OH; N-terminus and C-terminus assumed): the IC50 on Mushroom tyrosinase (setting [5]) is over 10 mM.

In turn, Pro-Tyr-Leu-Lys (PYLK) (peptide) displayed a Tyrosinase Inhibitory Activity (IC50, mM); oxidation of L-tyrosine by mushroom tyrosinase read at 475 nm in experiment [1] of over 10 mM.

On to `CC(C)[C@H](NC(=O)[C@H](CCCNC(=N)N)NC(=O)[C@@H](N)Cc1ccccc1)C(=O)N[C@@H](CCCCN)C(=O)O` [FRVK, Phe-Arg-Val-Lys] (H-FRVK-OH; N-terminus and C-terminus assumed), for which, at Mushroom tyrosinase (setting [5]), the IC50 came to 5.87 ± 0.068 mM.

B1: Pro-His-His-Phe (PHHF) (peptide)
peptide: PHHF
Take B1: in experiment [1], the Tyrosinase Inhibitory Activity (IC50, mM); oxidation of L-tyrosine by mushroom tyrosinase read at 475 nm is over 10 mM.

B2: Phe-Arg-Val-Lys (FRVK) (peptide)
peptide: FRVK
In turn, B2 showed a Tyrosinase Inhibitory Activity (IC50, mM); oxidation of L-tyrosine by mushroom tyrosinase read at 475 nm in experiment [1] of 5.87 mM.
